Patent US20170112760A1, “CELL DELIVERY SYSTEM AND METHOD” (The Queen's University of Belfast, priority 2014, published 2017)
pEC50: −log10 of the molar value. Where two headings read alike, the source gives them in different places. Values belong to the compound of their own block, whether it stands above or below them. Ends that are not written are not given here.

Legend:
[1] = system: PC-3 prostate cancer cells; test: Cell proliferation assay (manual cell counts), bisphosphonates and RALA/BP nanoparticles; conditions: for maximum cell kill: FIG. 51
Method: FIG. 51: Cell viability was evaluated by manual counting of the viable adherent cells using a haemocytometer. PC-3 prostate cancer cells were seeded in a 96-well flat-bottom tissue culture plate at a density of 1×10^4 cells per well and incubated in complete culture medium for 24 h. Two hours prior to transfection the cells were conditioned in OptiMEM serum-free medium and subsequently treated with solutions of BP to achieve a final exposure concentration of 5 μM to 1 mM. RALA/BP nanoparticles were prepared using a mass ratio of 10:1 such that the final concentration of BP per well was in the range 5 μM to 75 μM. Cells were incubated at 37° C. with 5% CO2 for 6 h before medium was replaced with completed culture medium and left to incubate for 72 h. Following incubation the cells were trypsinised and counted. Cell viability was expressed as a percentage of the untreated control where the untreated control is considered to be 100% viable. Dose-response curves were obtained for free BP and RALA/BP allowing determination of EC50 values for each. EC50 values refer to the concentration that induces a response halfway between the baseline and the maximum plateau obtained.
Cell viability was evaluated by manual counting of the viable adherent cells using a haemocytometer as described in. PC-3 prostate cancer cells were seeded in a 96-well flat-bottom tissue culture plate at a density of 1×10^4 cells per well and incubated in complete culture medium for 24 h. Two hours prior to transfection the cells were conditioned in OptiMEM serum-free medium (Invitrogen, UK) optimised for transfection. Cells were treated with solutions of BP to achieve a final exposure concentration of 5 μM to 1 mM. RALA/BP nanoparticles were prepared using a mass ratio of 10:1 such that the final concentration of BP per well was in the range 5 μM to 75 μM. Cells were incubated at 37° C. with 5% CO2 for 6 h before medium was replaced with completed culture medium and left to incubate for 72 h. Following incubation the cells were trypsinised and counted. Cell viability was expressed as a percentage of the untreated control where the untreated control is considered to be 100% viable. Dose-response curves were obtained for free BP and RALA/BP allowing determination of EC50 values for each. EC50 values refer to the concentration that induces a response halfway between the baseline and the maximum plateau obtained (FIG. 46, 51).

[2] = Nanoparticle size and charge analysis (DLS, zeta potential, Malvern Zetasizer); format: physicochemical; conditions: peptide/DNA nanoparticles, N:P10
Method: In order to obtain particle size and charge distributions the mean hydrodynamic particle size measurements RALA complexes were performed using Dynamic Light Scattering (DLS). Dynamic Light Scattering is based upon the principle that when particles are illuminated with a laser, due to Brownian motion there will be scattering of the light. The intensity of the scattered light fluctuates as a result of this Brownian motion caused by bombardment of the particles by solvent molecules. A correlation curve reflecting the decay rate is generated based on fluctuations of the scattered light where a slower correlation decay rate represents a slower moving particle. Based on the Stokes-Einstein equation larger particles move more slowly and, thus, the correlation function can be used to determine the size distribution of the particles. dynamic light scattering (DLS) was used.
Surface charge measurements of the RALA nanoparticles were determined by Laser Doppler Velocimetry. The zeta potential of the particles was measured using disposable foltable zeta cuvettes. Zeta cuvettes for the measurement of zeta potential were first washed with 70% ethanol, followed by two rinses with double distilled H2O prior to loading the sample. Enough diluted sample used for size measurement was used for determination of zeta potential.
The nanoparticles were made up at an appropriate range of N:P ratios with at least using 2 μg of DNA in each sample. Nanoparticles were analysed using either and analysis was completed on either the Zetasizer-HS3000 (Malvern Instruments) or the Zetasizer-Nano instrument with DTS software (Malvern Instruments, UK). Zetasizer-Nano (Malvern Instruments) (FIGS. 3, 9, 17-21, 41, 48 & 55).

[3] = system: ZR-75-1 cells; test: Transfection with peptide/pEGFP-N1 nanoparticles, GFP expression by flow cytometry; format: cell-based; conditions: for Transfection Efficiency in ZR-75-1 Cells: peptide/DNA nanoparticles, N:P10
Method: In order to test the RALA in vitro, small scale transfections were performed carried out. 5×10^4 cells were seeded onto each well of a 96 well plate and the cells incubated under with complete medium standard conditions for 48 hours. The medium was subsequently removed from the plates and 100 μl of transfection medium (Optimem Invitrogen, UK) was added to each well. Cells were incubated for 2 hours at 37° C. and 5% CO2 standard conditions. In the meanwhile complexes were made up using 1 μg of plasmid DNA with the RALA vector and added to the cells when the two hours had passed. 100 μl of the each N:P ratio were added to each well of the cells. Cells were then incubated for a further 4 hours under standard conditions and the medium with RPMI-1640 supplemented with +10% FCS. (FIG. 4, 31(+Chloroquine), 32 (+Bafilomycin), 33 (+KALA NPs), 34 (+Lipofectamine), 35).
ZR-75-1 & PC-3 cells that were transfected with RALA/pEGFP-N1 complexes were trypsinised and washed twice with 2% formaldehyde in phosphate buffered saline. The expression of green fluorescent protein was measured by flow cytometry using FACS calibur system (BD Bioscience, UK). The data was analysed using the Flo-Jo software program and fluorescent intensity is reported at 4% gating. (FIG. 7b, 11, 31, 32, 33, 34, 35, 57 (+RAT/pEGFP-N1)).

[4] = Immune response on repeated intravenous administration (ELISAs, Greiss test); format: in vivo, C57/BL6 mice; conditions: first week
Method: FIG. 8: Immune response of C57BL/6 mice injected with PBS only, PEI only, RALA only, DNA only, PEI/DNA or RALA/DNA nanoparticles. For each injection the equivalent to N:P 10 with 10 μg of DNA was injected. Mice received one injection per week for three weeks. 48 h after each injection three mice were sacrificed and the serum was extracted for analysis. a) IgG, b) IgM, c) IL-1β, d) IL-6 and e) Greiss test for total nitrites.
For the harvesting of blood and intraperitoneal macrophages, cervical dislocation was the preferred method of euthanasia. Cardiac puncture was performed using a 21 G gauge needle (BD Biosciences, UK). The needle was placed horizontally slightly to the left side of the sternum to go up through the diaphragm. The needle was then withdrawn very slowly until 500 μl of blood was collected and placed in an eppendorf. The eppendorf was then stored at room temperature with an open lid to facilitate coagulation. After 30 min the eppendorfs were centrifuged at 2000 rpm for 10 min. The supernatant containing the serum was carefully decanted and placed into a clean eppendorf and stored at −20° C. until further use. When harvesting intraperitoneal macrophages an incision was made and the peritoneal cavity was flushed out with 30% sucrose (Sigma, UK) solution. The macrophages were stored at 4° C. until they could be cultured (FIG. 8). […]

[5] = system: PC-3 prostate cancer cell xenograft; test: PC-3 xenograft model, intratumoural RALA/alendronate; format: in vivo, BALB-C SCID mice; conditions: thrice weekly

Compound: CC(O)(P(=O)(O)O)P(=O)(O)O [etidronate]
- percentage cell survival with increasing BP ([1]; FIG. 51d): no reduction in percentage cell survival with increasing BP

Compound: WEARLARALARALARELARALARALRACEA (amphipathic peptide sequence (Table 2)) [Peptide 3, H replaced with glutamic acid (E)]
- Charge (mV) [2]: 24 mV
- Transfection Efficiency in ZR-75-1 Cells [3]: 41%

Compound: WEARLARALARALARHLARALARALRACEA [RALA]
- TNFα response [4]: significantly lower initial response of TNFα than the PEI only treated animals

Compound: WEARLARALARALARHLRACEA (22mer protein sequence (Table 2)) [Peptide 22mer, comparative peptide, reference compound]
- ability to condense DNA into nanoparticles and transfect cells [3]: unable to condense DNA into nanoparticles and transfect cells

Compound: REARLARALARALARLARALARALRAREA (amphipathic peptide sequence (Table 2)) [Peptide 5, H Removed and W replaced with R and C replaced with R]
- Charge (mV) [2]: 13 mV
- Transfection Efficiency in ZR-75-1 Cells [3]: 46%

Compound: NCCCC(O)(P(=O)(O)O)P(=O)(O)O [alendronate]
- effect on tumour growth vs untreated control [5]: high statistical significance when compared to the untreated control
- pEC50 ([1]; FIG. 16: 10 μM to 250 μM, six hours, 72 hours recovery): 4.01
- pEC50 ([1]; FIG. 51: 6 h treatment, 72 h incubation, mass ratio 10:1): 4.00

- pEC50 [1]: 4.56
Compound: O=P(O)(O)C(O)(Cn1ccnc1)P(=O)(O)O [zoledronate]
- maximum cell kill [1]: 82%

Compound: O=P(O)(O)C(O)(Cc1cccnc1)P(=O)(O)O [risedronate]
- pEC50 [1]: 4.11
- maximum cell kill [1]: 20%

Compound: REARLARALARALARELARALARALRAREA (amphipathic peptide sequence (Table 2)) [Peptide 6, H Replaced with E and W replaced with R and C replaced with R]
- Best Size (nm) [2]: 308 nm
- Charge (mV) [2]: 6 mV
- Transfection Efficiency in ZR-75-1 Cells [3]: 43%

Compound: REARLARALARALARLARALARALRACEA (amphipathic peptide sequence (Table 2)) [Peptide 4, H Removed and W replaced with R]
- Charge (mV) [2]: 12 mV
- Transfection Efficiency in ZR-75-1 Cells [3]: 50%

Compound: WEARLARALARALARLARALARALRACEA (amphipathic peptide sequence (Table 2)) [Peptide 2, H removed]
- Charge (mV) [2]: 22 mV
- Transfection Efficiency in ZR-75-1 Cells [3]: 55%
